Measurements from patent US8841301B2, “Selective NR2B antagonists” (Bristol-Myers Squibb Company, priority 2011, dated 2014).

target: hNR2B (Homo sapiens, UniProt Q05586+Q13224); assay: Electrophysiology NMDA receptor experiments: two electrode voltage-clamp in Xenopus laevis oocytes expressing GluN1/GluN2 subunits; type: cell-based; settings: oocytes voltage clamped at −40 mV; 50 μM glutamate, 30 μM glycine; read-out: Rating (hNR2B IC50)
Procedure: Electrophysiology NMDA Receptor Experiments.
Stage V and VI oocytes were surgically removed from the ovaries of large, well-fed and healthy Xenopus laevis anesthetized with 3-amino-benzoic acid ethyl ester (3 gm/l). Clusters of isolated oocytes were incubated with 292 U/ml Worthington (Freehold, N.J.) type IV collagenase or 1.3 mg/ml collagenase (Life Technologies, Gaithersburg, Md.; 17018-029) for 2 hr in Ca^2+-free solution comprised of (in mM) 115 NaCl, 2.5 KCl, and 10 HEPES, pH 7.5, with slow agitation to remove the follicular cell layer. Oocytes were then washed in the same solution supplemented with 1.8 mM CaCl2 and maintained in Barth's solution comprised of (in mM): 88 NaCl, 1 KCl, 2.4 NaHCO3, 10 HEPES, 0.82 MgSO4, 0.33 Ca(NO3)2, and 0.91 CaCl2 and supplemented with 100 μg/ml gentamycin, 10 μg/ml streptomycin, and 10 μg/ml penicillin. Oocytes were manually defolliculated and injected within 24 hrs of isolation with 3-5 ng of human GluN1 subunit cRNA and 7-10 ng of human GluN2 cRNA subunit in a 50 nl volume, and incubated in Barth's solution at 18° C. for 2-7 d. Glass injection pipettes had tip sizes ranging from 10-20 microns, and were backfilled with mineral oil. cRNA was synthesized from linearized template cDNA for rat glutamate receptor subunits according to manufacturer specifications (Ambion).
Two electrode voltage-clamp recordings were made 2-7 days post-injection. Oocytes were placed in a dual-track plexiglass recording chamber with a single perfusion line that splits in a Y-configuration to perfuse two oocytes. Dual recordings were made at room temperature (23° C.) using two Warner OC725B two-electrode voltage clamp amplifiers, arranged as recommended by the manufacturer. Glass microelectrodes (1-10 Megaohms) were filled with 300 mM KCl (voltage electrode) or 3 M KCl (current electrode). The bath clamps communicated across silver chloride wires placed into each side of the recording chamber, both of which were assumed to be at a reference potential of 0 mV. Oocytes were perfused with a solution comprised of (in mM) 90 NaCl, 1 KCl, 10 HEPES, […] and 0.5 BaCl2; pH 7.4, adjusted by addition of NaOH. Oocytes were recorded under voltage clamp at −40 mV. Final concentrations for glutamate and glycine were 50 μM and 30 μM, respectively. Concentration-response curves for experimental compounds were obtained by applying in successive fashion maximal glutamate/glycine, followed by glutamate/glycine plus variable concentrations of experimental compounds. Dose response curves consisting of four to eight concentrations were obtained in this manner. The baseline leak current at −40 mV was measured before and after recording, and the full recording linearly corrected for any change in leak current. The level of inhibition by applied experimental compounds was expressed as a percent of the initial glutamate response, and averaged together across oocytes from multiple experiments. Results were pooled, and the average percent responses at antagonist concentrations were fit by the equation, Percent Response=(100−minimum)/(1+([conc]/IC50)^nH)+minimum where minimum is the residual percent response in saturating concentration of the experimental compounds, IC50 is the concentration of antagonist that causes half of the achievable inhibition, and nH is a slope factor describing steepness of the inhibition curve. […]
For NMDA receptor subtype selectivity experiments human GluN1/GluN2A, GluN1/GluN2C, and GluN1/GluN2D cRNAs were expressed in Xenopus laevis as described above. Here, 10 μM concentrations of the antagonist was perfused with 50 μM glutamate and 30 μM glycine onto the oocyte for two min and the remaining current in the presence of the antagonist was compared to the maximal current obtained with 50 μM glutamate and 30 μM glycine alone (defined as 100%). When IC50 determinations were made against other NMDA receptor subtypes the protocol as described above was followed. […]

Sequence of hNR2B (Q13224 27-1484, other chains not shown): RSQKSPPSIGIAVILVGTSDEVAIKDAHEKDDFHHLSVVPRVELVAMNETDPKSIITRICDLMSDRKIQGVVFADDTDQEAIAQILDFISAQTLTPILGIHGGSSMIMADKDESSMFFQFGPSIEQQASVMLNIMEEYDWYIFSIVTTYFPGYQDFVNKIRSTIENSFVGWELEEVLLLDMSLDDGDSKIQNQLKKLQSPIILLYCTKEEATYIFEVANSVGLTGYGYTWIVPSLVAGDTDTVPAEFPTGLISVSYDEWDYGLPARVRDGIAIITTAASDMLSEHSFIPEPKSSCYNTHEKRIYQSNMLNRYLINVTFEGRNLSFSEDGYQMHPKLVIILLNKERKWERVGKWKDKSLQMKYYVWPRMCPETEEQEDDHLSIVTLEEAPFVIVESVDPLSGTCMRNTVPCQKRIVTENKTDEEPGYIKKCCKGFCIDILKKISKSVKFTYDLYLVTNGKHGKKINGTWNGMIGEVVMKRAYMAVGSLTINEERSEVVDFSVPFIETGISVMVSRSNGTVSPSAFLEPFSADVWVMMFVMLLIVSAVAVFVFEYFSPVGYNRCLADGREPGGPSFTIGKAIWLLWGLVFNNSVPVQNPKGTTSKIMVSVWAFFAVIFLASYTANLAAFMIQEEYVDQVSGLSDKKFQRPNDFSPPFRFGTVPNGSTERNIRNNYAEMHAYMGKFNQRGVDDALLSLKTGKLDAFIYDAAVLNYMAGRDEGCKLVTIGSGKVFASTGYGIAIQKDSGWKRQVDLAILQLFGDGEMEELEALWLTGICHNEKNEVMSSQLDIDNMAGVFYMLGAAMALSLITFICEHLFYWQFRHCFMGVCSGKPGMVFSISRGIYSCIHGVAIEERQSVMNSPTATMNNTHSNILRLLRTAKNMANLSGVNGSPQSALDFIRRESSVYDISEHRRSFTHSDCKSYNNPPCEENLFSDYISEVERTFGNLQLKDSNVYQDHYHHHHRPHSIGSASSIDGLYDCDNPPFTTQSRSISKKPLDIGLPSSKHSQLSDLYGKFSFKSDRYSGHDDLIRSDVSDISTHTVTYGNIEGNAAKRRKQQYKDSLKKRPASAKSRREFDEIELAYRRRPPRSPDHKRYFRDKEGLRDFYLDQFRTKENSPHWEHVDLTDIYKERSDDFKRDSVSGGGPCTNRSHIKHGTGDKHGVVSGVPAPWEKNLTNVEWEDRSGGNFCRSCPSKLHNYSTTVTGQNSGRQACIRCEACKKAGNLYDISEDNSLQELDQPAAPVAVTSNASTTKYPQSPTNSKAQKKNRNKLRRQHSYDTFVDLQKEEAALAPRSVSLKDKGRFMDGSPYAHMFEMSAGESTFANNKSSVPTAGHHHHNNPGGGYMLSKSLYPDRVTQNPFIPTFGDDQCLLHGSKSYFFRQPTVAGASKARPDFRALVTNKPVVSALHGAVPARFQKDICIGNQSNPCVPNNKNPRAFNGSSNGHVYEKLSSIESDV

IC50	SMILES
< 200 nM	O=c1ccc2cc(OCc3cnc(NCc4ccc(F)c(F)c4)nc3)ccc2[nH]1 [Example 26]
< 200 nM	O=c1ccc2cc(OCc3cnc(NCc4ccc(F)cc4)nc3)ccc2[nH]1 [Example 27]
< 200 nM	Cc1ccc(Nc2ncc(COc3ccc4[nH]c(=O)ccc4c3)cn2)cc1F [Example 28]
< 200 nM	COc1ccc(Nc2ncc(COc3ccc4[nH]c(=O)ccc4c3)cn2)cc1F [Example 29]
< 200 nM	O=c1ccc2cc(OCc3cnc(Nc4ccc(F)cc4)nc3)ccc2[nH]1 [Example 30]
< 200 nM	O=c1ccc2cc(OCc3cnc(Nc4ccc(F)c(F)c4)nc3)ccc2[nH]1 [Example 31]
201 to 1000 nM	O=c1ccc2cc(OCc3cnc(Nc4ccc(F)c(Cl)c4)nc3)ccc2[nH]1 [Example 32]
1000 to 10000 nM	COc1cc(Nc2ncc(COc3ccc4[nH]c(=O)ccc4c3)cn2)ccc1F [Example 33]
< 200 nM	O=c1ccc2cc(OCc3cnc(Nc4ccc(OC(F)F)c(Cl)c4)nc3)ccc2[nH]1 [Example 35]
< 200 nM	COc1ccc(Nc2ncc(COc3ccc4[nH]c(=O)ccc4c3)cn2)cc1Cl [Example 36]
< 200 nM	O=c1ccc2cc(OCc3cnc(Nc4ccc(OC(F)F)c(F)c4)nc3)ccc2[nH]1 [Example 37]
< 200 nM	Cc1cc(Nc2ncc(COc3ccc4[nH]c(=O)ccc4c3)cn2)ccc1OC(F)F [Example 38]
< 200 nM	CCc1ccc(Nc2ncc(COc3ccc4[nH]c(=O)ccc4c3)cn2)cc1F [Example 39]
< 200 nM	CS(=O)(=O)c1ccc(Nc2ncc(COc3ccc4[nH]c(=O)ccc4c3)cn2)cc1 [Example 40]
< 200 nM	Cc1ccc(Nc2ncc(COc3ccc4[nH]c(=O)ccc4c3)cn2)cc1C [Example 41]
< 200 nM	Cc1ccc(Nc2ncc(COc3ccc4[nH]c(=O)ccc4c3)cn2)cc1Cl [Example 42]
< 200 nM	CCCc1ccc(Nc2ncc(COc3ccc4[nH]c(=O)ccc4c3)cn2)cc1 [Example 43]
< 200 nM	CC(C)c1ccc(Nc2ncc(COc3ccc4[nH]c(=O)ccc4c3)cn2)cc1 [Example 44]
< 200 nM	COc1ccc(Nc2ncc(COc3ccc4[nH]c(=O)ccc4c3)cn2)cc1C [Example 46]
< 200 nM	CC(C)(C)c1ccc(Nc2ncc(COc3ccc4[nH]c(=O)ccc4c3)cn2)cc1 [Example 47]
< 200 nM	COc1ccc(Nc2ncc(COc3ccc4[nH]c(=O)ccc4c3)cn2)cn1 [Example 48]

IC50	SMILES
< 200 nM	COc1ncc(Nc2ncc(COc3ccc4[nH]c(=O)ccc4c3)cn2)cc1C [Example 49]
< 200 nM	O=c1ccc2cc(OCc3cnc(Nc4ccc(OC(F)F)nc4)nc3)ccc2[nH]1 [Example 50]
< 200 nM	Cc1nc(Nc2ccc(Cl)cc2)ncc1COc1ccc2[nH]c(=O)ccc2c1 [Example 51]
< 200 nM	Cc1nc(Nc2ccc(OC(F)F)cc2)ncc1COc1ccc2[nH]c(=O)ccc2c1 [Example 52]
< 200 nM	O=c1ccc2cc(OCc3cnc(Nc4ccc(OC(F)F)cc4)nc3C(F)(F)F)ccc2[nH]1 [Example 53]
< 200 nM	O=c1ccc2cc(OCc3cnc(Nc4ccc(Cl)cc4)nc3C(F)(F)F)ccc2[nH]1 [Example 54]
< 200 nM	CN(C)c1nc(Nc2ccc(OC(F)F)cc2)ncc1COc1ccc2[nH]c(=O)ccc2c1 [Example 55]
< 200 nM	FC(F)(F)Oc1ccc(Nc2ncc(COc3ccc4[nH]ncc4c3)cn2)cc1 [Example 56]
< 200 nM	FC(F)Oc1ccc(Nc2ncc(COc3ccc4[nH]ncc4c3)cn2)cc1 [Example 57]
< 200 nM	O=C1Nc2ccc(OCc3cnc(Nc4ccc(OC(F)F)cc4)nc3)cc2CO1 [Example 58]
< 200 nM	Oc1ccc(OCc2cnc(Nc3ccc(OC(F)F)cc3)nc2)nn1 [Example 59]
< 200 nM	FC(F)Oc1ccc(Nc2ncc(COc3ccc4[nH]cnc4c3)cn2)cc1 [Example 60]
< 200 nM	O=C1Nc2ccc(OCc3cnc(Nc4ccc(OC(F)(F)F)cc4)nc3)cc2CO1 [Example 61]
< 200 nM	FC(F)Oc1ccc(Nc2ncc(COc3cn[nH]c3)cn2)cc1 [Example 63]
< 200 nM	FC(F)(F)Oc1ccc(Nc2ncc(COc3ccc4[nH]ncc4c3Cl)cn2)cc1 [Example 64]
< 200 nM	Nc1nc2ccc(OCc3cnc(Nc4ccc(OC(F)F)cc4)nc3)cc2s1 [Example 65]
< 200 nM	FC(F)Oc1ccc(Nc2ncc(COc3ccc4[nH]ncc4c3Cl)cn2)cc1 [Example 66]
< 200 nM	Cc1cc(OCc2cnc(Nc3ccc(OC(F)(F)F)cc3)nc2)cc2cn[nH]c12 [Example 67]
< 200 nM	FC(F)(F)Oc1ccc(Nc2ncc(COc3ccc4[nH]nnc4c3)cn2)cc1 [Example 68]
< 200 nM	FC(F)Oc1ccc(Nc2ncc(COc3ccc4[nH]nnc4c3)cn2)cc1 [Example 69]
< 200 nM	Oc1ncc(OCc2cnc(Nc3ccc(OC(F)F)cc3)nc2)cn1 [Example 70]

IC50	SMILES
< 200 nM	O=c1[nH]c2ccc(OCc3cnc(Nc4ccc(OC(F)(F)F)cc4)nc3)cc2s1 [Example 71]
< 200 nM	Fc1cc(Nc2ncc(COc3ccc4[nH]ncc4c3Cl)cn2)ccc1OC(F)F [Example 72]
< 200 nM	Cc1cc(Nc2ncc(COc3ccc4[nH]ncc4c3Cl)cn2)ccc1OC(F)F [Example 73]
< 200 nM	FC(F)Oc1ccc(Nc2ncc(COc3ccc4[nH]ncc4c3)cn2)cc1Cl [Example 75]
< 200 nM	Cc1cc(Nc2ncc(COc3ccc4[nH]ncc4c3)cn2)ccc1OC(F)F [Example 76]
< 200 nM	O=C1Nc2ccc(OCc3cnc(Nc4ccc(OC(F)F)c(Cl)c4)nc3)cc2CO1 [Example 77]
< 200 nM	Cc1cc(Nc2ncc(COc3cc4ccc(=O)[nH]c4cc3F)cn2)ccc1OC(F)F [Example 78]
< 200 nM	FC(F)Oc1ccc(Nc2ncc(COc3cnc4[nH]ncc4c3)cn2)cc1 [Example 79]
< 200 nM	O=c1[nH]c2ccc(OCc3cnc(Nc4ccc(OC(F)(F)F)cc4)nc3)cc2o1 [Example 80]
< 200 nM	Cc1cc(Nc2ncc(COc3ccc4c(c3)COC(=O)N4)cn2)ccc1OC(F)F [Example 82]
< 200 nM	Cc1ccc(Nc2ncc(COc3ccc4c(c3)COC(=O)N4)cn2)cc1F [Example 83]
< 200 nM	O=C1Nc2ccc(OCc3cnc(Nc4ccc(OC(F)F)c(F)c4)nc3)cc2CO1 [Example 84]
< 200 nM	O=C1Cc2cc(OCc3cnc(Nc4ccc(OC(F)F)c(F)c4)nc3)ccc2N1 [Example 85]
< 200 nM	Cc1cc(Nc2ncc(COc3ccc4c(c3)CC(=O)N4)cn2)ccc1OC(F)F [Example 86]
< 200 nM	Cc1cc(Nc2ncc(COc3ccc(Nc4nccs4)cc3)cn2)ccc1OC(F)F [Example 87]
< 200 nM	O=c1ccc2cc(OCc3cnc(Nc4ccc(OC(F)F)c(Cl)c4)nc3)c(F)cc2[nH]1 [Example 88]
< 200 nM	FC(F)Oc1ccc(Nc2ncc(COc3cnc4[nH]ccc4c3)cn2)cc1Cl [Example 90]
< 200 nM	Fc1cc(Nc2ncc(COc3ccc(Nc4nccs4)cc3)cn2)ccc1OC(F)F [Example 91]
< 200 nM	FC(F)Oc1ccc(Nc2ncc(COc3ccc(Nc4nccs4)cc3)cn2)cc1Cl [Example 92]
1000 to 10000 nM	O=c1ccc2cc(OCc3ccnc(NCc4ccc(Cl)cc4)n3)ccc2[nH]1 [Example 94]

same assay, conditions: oocytes voltage clamped at −40 mV; 50 μM glutamate, 30 μM glycine; read-out: hNR2B IC50

IC50	SMILES
139 nM	O=c1ccc2cc(OCc3cnc(NCc4ccc(F)c(F)c4)nc3)ccc2[nH]1 [Example 26]
62 nM	O=c1ccc2cc(OCc3cnc(NCc4ccc(F)cc4)nc3)ccc2[nH]1 [Example 27]
101 nM	Cc1ccc(Nc2ncc(COc3ccc4[nH]c(=O)ccc4c3)cn2)cc1F [Example 28]
1250 nM	O=c1ccc2cc(OCc3ccnc(Nc4ccc(Cl)cc4)n3)ccc2[nH]1 [Example 93, 6-((2-(4-chlorophenylamino)pyrimidin-4-yl)methoxy)quinolin-2(1H)-one]
